Measurements as given in article PMC6656724 (Communications Biology, 2019).
Several values for one entry are separate records, joined by “and”; a condition that tells them apart may be missing. Equal entries are not always repeated.

Key:
PfKMO [1] = molecular target: T1, PfKMO (Pseudomonas fluorescens, UniProt Q84HF5, C252S/C461S); test: Stopped-flow reduction of flavin cofactor by NADPH; type: biochemical; details: for Reduction rate of flavin cofactor: PfKMO with saturating ligand, 2 mM NADPH, 25 °C, anaerobic; for Stimulation of KMO reduction by NADPH: rapid mixing stopped-flow assays
T1 construct: made in house; host or cells: E. coli BL21 (DE3)
Protocol: The reduction rate of the flavin cofactor by NADPH was measured using a stopped-flow spectrophotometer (Applied Photophysics Ltd), which was housed in an anaerobic glovebox (Belle Technology). […] The reduction of the flavin was monitored by the decrease in the absorbance of the flavin at 450 nm and transients were fitted to either double or triple exponentials.
Supplementary Figure 13. Reduction of flavin cofactor by NADPH in the presence and absence of ligands. Anaerobic mixtures of 10 µM PfKMO with or without ligand were mixed against anaerobic 2 mM NADPH on a stopped-flow spectrophotometer at 25℃. a, 10 µM PfKMO mixed with 2 mM NADPH; b, 10 µM

[2] = molecular target: T2, Pseudomonas fluorescens KMO (PfKMO) (Pseudomonas fluorescens, UniProt Q84HF5, C252S/C461S); test: biochemical
T2 construct: made in house; host or cells: E. coli BL21 (DE3)
Excerpt: (§1) A combination of ligand- and structural-based virtual screening approaches (see supporting information for details) was used to identify an initial library of >1000 compounds that may be suitable as potential KMO inhibitors. These compounds were screened for inhibition of Pseudomonas fluorescens KMO (PfKMO) and Homo sapiens KMO (HsKMO) using high-throughput assays by monitoring the time-dependent oxidation of NADPH at 340 nm[23].
(§2) Small-molecule compounds were supplied by Biofocus (Charles River Laboratories International Inc., MA, USA), which were identified in silico as potential inhibitors (further details are described in the Supplementary Methods). Initial inhibition assays were performed against Pseudomonas fluorescens KMO (PfKMO) and Homo sapiens KMO (HsKMO) by monitoring the time-dependent absorbance change of NADPH at 340 nm. Purified KMO protein (200 nM) was incubated in 100 µL reaction buffer (20 mM potassium phosphate pH 8.0, 7 mM 2-mercaptoethanol) containing 100 μM NADPH, 100 μM L-Kyn and 20 μM potential inhibitors in 96-well plates. […] The inhibitors identified in the initial screens were validated and re-assayed individually in a 1 cm path-length quartz micro cuvette. […] Suppliers for target inhibitor compounds are listed in Supplementary Table 11.
Supplementary Figure 1. Examples of inhibition data used to generate IC50 values for selected KMO inhibitors. Fixed concentration of L -KYN (200 µM) and NADPH (100µM) were added into reaction buffer (HsKMO: 20mM potassium phosphate pH 8.0, 7 mM 2-mercaptoethanol; PfKMO: 20 mM HEPES, 10mM sodium acetate, pH 7.5, 2mM DTT). The reaction was initiated by the addition of KMO enzyme (HsKMO: 0.5µM; PfKMO: 0.1 µM). KMO activity was measured in the presence of a range of inhibitor concentrations. […]
(§3) 3.5 Steady-state enzymatic assays.
(§4) Initial screening assays and determination of IC50 values for each potential inhibitor compound were carried out using either 0.1 µM PfKMO or 0.5 µM HsKMO at fixed […]
(§5) (HsKMO: 20 mM potassium phosphate pH 8.0, 7 mM 2-mercaptoethanol; PfKMO:
(§6) 20 mM HEPES, 10 mM sodium acetate, pH 7.5, 2 mM DTT). KMO activity was measured in the presence of a range of inhibitor concentrations by monitoring the […]
consumption of NADPH at 340 nm upon addition of enzyme via a Cary 50 UV-Vis spectrophotometer (Agilent Technologies). Rates were determined from linear regression fits to the initial linear portion of the curves. All measurements were performed in triplicate. The IC50 values for inhibitors were obtained by plotting the percentage inhibition versus the inhibitor concentration and fitting to the Morrison equation16 (equation 1) using Origin 9.0 Software (OriginLab, Northampton, MA). […]

PfKMO [3] = molecular target: T1, PfKMO; test: biochemical; details: for Mechanism of inhibition with respect to L-KYN / Mechanism of inhibition with respect to NADPH: PfKMO
Protocol: saturating concentrations of the L-KYN and NADPH substrates. Data are plotted […]
(§7) consumption of NADPH at 340 nm upon addition of enzyme via a Cary 50 UV-Vis spectrophotometer (Agilent Technologies). Rates were determined from linear regression fits to the initial linear portion of the curves. All measurements were performed in triplicate. The IC50 values for inhibitors were obtained by plotting the percentage inhibition versus the inhibitor concentration and fitting to the Morrison equation16 (equation 1) using Origin 9.0 Software (OriginLab, Northampton, MA).
E + I + K!"" − E + I + K!"" ! − 4[E][I] where v0 is the enzyme activity without inhibitor, vi is the enzyme activity with ligand concentration [I], [E] is the enzyme concentration, [I] is the inhibitor concentration, K!"" is the apparent inhibition constant and IC = K!"" + [!] . If K!"" ≫ [!], IC ≈ […]
where Ki is the inhibition constant, [S] is the substrate concentration used in the assay and Km is the Michaelis-Menten constant17. […]
between Ki and Ki apparent values, as the conditions for measuring IC50 are different, Ki values can be used to compare with other reported KMO inhibitors.
Steady-state kinetic parameters for PfKMO were calculated by measuring initial rates […]
the observed rate of turnover (v) versus the varied substrate concentration were fitted to equation 2 using Origin 9.0 Software (OriginLab, Northampton, MA).
A B + K!! B + K!! A + K!!K!! where v is the initial rate of activity, Vmax is the maximum velocitie of the reaction, [A] and [B] are the substrate concentration, K!! and K!! are the Michaelis-Menten constant for different substrate and K!! is the inhibition (binding) constant of substrate A to the free enzyme while forming transitory complexes.18
Product inhibition studies were carried out by measuring reaction rates at varying […]
one substrate and varying concentrations of the other substrate. Inhibition studies with target compounds were carried out by measuring reaction rates at varying inhibitor concentrations at saturating concentrations of one substrate and varying concentrations of the other substrate. […]
were used to distinguish between different types of inhibition. The data were fitted to a straight line defined by the Lineweaver-Burke equation (equation 4), with the y intercept providing 1/Vmax and the x intercept giving -1/Km. […]

Homo sapiens KMO (HsKMO) = molecular target: T3, Homo sapiens KMO (HsKMO) (Homo sapiens, UniProt O15229); test: KMO inhibition assay, NADPH oxidation at 340 nm (HsKMO); type: biochemical
T3 construct: GST; made in house
Excerpt: as §1, §2
Supplementary Figure 1. Examples of inhibition data used to generate IC50 values for selected KMO inhibitors.
NADPH (100µM) were added into reaction buffer (HsKMO: 20mM potassium phosphate pH 8.0, 7 mM 2-mercaptoethanol; PfKMO: 20 mM HEPES, 10mM sodium acetate, pH 7.5, 2mM DTT). The reaction was initiated by the addition of KMO enzyme (HsKMO: 0.5µM; PfKMO: 0.1 µM). KMO activity was measured in the presence of a range of inhibitor concentrations. […]
as §3, §4, §5, §6, §7
E + I + K!"" − E + I + K!"" ! − 4[E][I] where v0 is the enzyme activity without inhibitor, vi is the enzyme activity with ligand

[4] = system: KMO activity in the striatum; test: De novo 3-HK synthesis after intrastriatal [5-3H]-kynurenine; type: in vivo, Sprague–Dawley rats

T2 sequence (Q84HF5 whole entry C252S/C461S): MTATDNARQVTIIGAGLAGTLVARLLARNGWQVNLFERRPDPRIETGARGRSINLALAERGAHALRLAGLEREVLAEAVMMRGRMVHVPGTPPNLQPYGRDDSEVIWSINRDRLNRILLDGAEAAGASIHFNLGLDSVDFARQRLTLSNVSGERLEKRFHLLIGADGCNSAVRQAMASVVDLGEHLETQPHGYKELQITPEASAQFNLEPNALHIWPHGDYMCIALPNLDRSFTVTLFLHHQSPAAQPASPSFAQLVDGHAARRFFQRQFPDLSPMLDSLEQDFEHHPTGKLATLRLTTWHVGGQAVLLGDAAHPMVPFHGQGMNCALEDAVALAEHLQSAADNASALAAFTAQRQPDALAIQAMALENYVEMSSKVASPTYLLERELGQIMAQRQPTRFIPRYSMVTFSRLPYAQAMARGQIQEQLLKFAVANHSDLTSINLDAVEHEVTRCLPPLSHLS
T1 sequence (Q84HF5 whole entry C252S/C461S): as above
T3 sequence (O15229 whole entry): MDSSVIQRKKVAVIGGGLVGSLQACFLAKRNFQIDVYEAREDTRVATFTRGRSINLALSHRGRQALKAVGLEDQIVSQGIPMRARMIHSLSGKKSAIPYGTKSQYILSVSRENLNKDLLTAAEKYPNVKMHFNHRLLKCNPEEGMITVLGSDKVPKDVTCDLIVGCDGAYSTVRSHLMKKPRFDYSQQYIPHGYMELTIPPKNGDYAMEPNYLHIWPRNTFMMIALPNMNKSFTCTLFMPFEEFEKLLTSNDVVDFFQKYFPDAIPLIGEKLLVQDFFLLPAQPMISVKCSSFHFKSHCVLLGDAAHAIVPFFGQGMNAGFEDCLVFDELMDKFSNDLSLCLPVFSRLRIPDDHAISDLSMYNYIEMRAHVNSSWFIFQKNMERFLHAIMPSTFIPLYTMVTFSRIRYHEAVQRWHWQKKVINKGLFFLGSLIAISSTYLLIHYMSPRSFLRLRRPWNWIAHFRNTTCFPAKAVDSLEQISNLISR

SMILES	Reduction rate of flavin cofactor (PfKMO [1]) [s⁻¹]	Stimulation of KMO reduction by NADPH (PfKMO [1])	IC50 [2] [µM]	Ki (PfKMO [3]) [µM]	Mechanism of inhibition with respect to L-KYN (PfKMO [3])	Mechanism of inhibition with respect to NADPH (PfKMO [3])	IC50 (Homo sapiens KMO (HsKMO)) [µM]	Reduction of [3H]-3-HK ([4]; rat striatum, 50 mg/kg i.v., 1 h)	Percentage of [5-3H]-KYN that is metabolized into [3H]-3-HK ([4]; striatum of awake rats, 1 h after 50 mg/kg i.v., single rats)
O=C(O)c1ccc(-c2cccc(Cl)c2Cl)o1 [compound 9, 5-(2,3-dichlorophenyl) furan-2-carboxylic acid]	0.03 ± 0.001	do not stimulate	4.3 ± 0.2	0.15 ± 0.01	competitive inhibitor	competitive inhibitor	39.6		
Cn1c(C(=O)N[C@@H](C(=O)O)c2ccccc2)cc2cc(Cl)ccc21 [compound 4, (R)-2-(5-chloro-1-methyl-1H-indole-2-carboxamido)-2-phenylacetic acid]	0.03 ± 0.005	do not stimulate	59.8 ± 7.14	3 ± 0.24	competitive inhibitor	mixed type inhibitors	6.1		
O=C(O)c1ccc(-c2ccc(Cl)c(Cl)c2)o1 [compound 13, 5-(3,4-dichlorophenyl) furan-2-carboxylic acid]	0.06 ± 0.002	do not stimulate	0.4 ± 0.02	0.02 ± 0.001	competitive inhibitor	mixed type inhibitors	63.1		
COc1ccc(S(=O)(=O)Nc2nc(-c3cccc([N+](=O)[O-])c3)cs2)cc1OC [Ro 61-8048]								no reduction	2.76% and 5.1% and 4.48% and 5.65% and 2.31% and 2.1%
